The results in this text go back to patent publication US20180008587A1, “THIOHYDANTOIN ANDROGEN RECEPTOR ANTAGONISTS FOR THE TREATMENT OF CANCER” (Jaressen Pharmaceutica NV, priority 2016, published 2018).

Holding throughout (format): cell-based
Assay [1] deals with T1, wild-type Androgen Receptor (AR-wt) (Homo sapiens, UniProt P10275).
T1 construct: expressed in transfected cells; host or cells: LNCaP (LNCaP AR (cs))
T1 sequence (P10275 1-920): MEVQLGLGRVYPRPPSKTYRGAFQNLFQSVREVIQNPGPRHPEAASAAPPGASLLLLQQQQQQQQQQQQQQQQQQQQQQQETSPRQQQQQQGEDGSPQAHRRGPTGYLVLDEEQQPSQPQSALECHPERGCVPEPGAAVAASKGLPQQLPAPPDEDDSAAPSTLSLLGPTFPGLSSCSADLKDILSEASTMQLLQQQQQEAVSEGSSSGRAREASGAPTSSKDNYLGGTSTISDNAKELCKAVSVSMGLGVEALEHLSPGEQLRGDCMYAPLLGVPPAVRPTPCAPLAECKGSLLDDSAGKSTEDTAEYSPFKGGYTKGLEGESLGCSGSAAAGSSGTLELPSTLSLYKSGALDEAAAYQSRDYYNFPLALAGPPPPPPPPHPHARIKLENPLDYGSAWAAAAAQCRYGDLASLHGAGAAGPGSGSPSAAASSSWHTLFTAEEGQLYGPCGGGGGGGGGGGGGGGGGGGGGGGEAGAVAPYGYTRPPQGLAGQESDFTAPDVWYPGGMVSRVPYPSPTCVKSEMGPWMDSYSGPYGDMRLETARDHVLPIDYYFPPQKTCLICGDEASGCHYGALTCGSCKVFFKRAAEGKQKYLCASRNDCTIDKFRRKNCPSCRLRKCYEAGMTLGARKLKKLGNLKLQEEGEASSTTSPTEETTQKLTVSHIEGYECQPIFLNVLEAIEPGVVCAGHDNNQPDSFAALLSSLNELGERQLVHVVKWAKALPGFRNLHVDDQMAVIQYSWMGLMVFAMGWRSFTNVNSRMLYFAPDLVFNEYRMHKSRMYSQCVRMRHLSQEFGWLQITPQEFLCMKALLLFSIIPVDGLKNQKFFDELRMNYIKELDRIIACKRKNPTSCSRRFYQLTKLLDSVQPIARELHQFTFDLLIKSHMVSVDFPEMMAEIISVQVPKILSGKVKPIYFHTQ
As to the kind of experiment: LNCaP-AR-wt ANT reporter assay (ARE firefly luciferase, antagonist mode). The following applies: for IC50: antagonist mode, 400 pM R-1881 challenge, −Log10(IC50 [Molar]), read-out: LNCaP-AR-wt ANT pIC50 (converted); for Emax: read-out: LNCaP-AR-wt ANT MAX % Inh. How it is done: (§1) A stable pooled-population cell line was generated using puromycin (Life Technologies) selection at 1:10,000 v/v. The protocol below was used for both cell lines and for testing of the compounds of Formula (I) of the present invention.
(§2) LNCaP cells were grown to about 80% confluence, media removed and cells rinsed in Hank's balanced salt solution prior to separation from the plate with 0.05% Trypsin EDTA. Cells were lifted and trypsin negated in complete CSS (charcoal stripped serum) culture media. […] Agonist challenge was at 400 pM for WT assay and 600 pM for F876L assay. Plates containing cells and compounds herein were incubated for a further 20-24 hours at 37° C., 5% CO2 before addition of 40 μL/well of Steady-Glo Luciferase Assay System Reagent (Promega# E2520). After 1 h, plates were read for luminescence on a BMG Pherastar.
(§3) EC/IC50 calculations were achieved utilizing calculated RLU data and data fitting macros. Data were fit using least-squares methods to the following formula: […]
On the technique in general: In a reporter assay the amount or activity of a reporter protein is the signal.

The target of assay [2] is T2, F876L mutant Androgen Receptor (AR-F876L) (Homo sapiens, UniProt P10275, F877L).
T2 construct: expressed in transfected cells; host or cells: LNCaP (LNCaP F876L)
T2 sequence (P10275 1-920 F877L): T1 sequence (P10275 1-920) with F877L
The assay can be described thus: LNCaP-AR-F876L AG reporter assay (ARE firefly luciferase, agonist mode). The following applies: for Emax: read-out: LNCaP-AR-F876L AG MAX % Stim. Here is the method: as §1, §2, §3

In assay [3] the target is T2, F876L mutant Androgen Receptor (AR-F876L). The assay can be described thus: LNCaP-AR-F876L ANT reporter assay (ARE firefly luciferase, antagonist mode). The following applies: for Emax: read-out: LNCaP-AR-F876L ANT MAX % Inh. How it is done:
as §1, §2, §3

The target of assay [4] is T1, wild-type Androgen Receptor (AR-wt). The assay can be described thus: LNCaP-AR-wt AG reporter assay (ARE firefly luciferase, agonist mode). The following applies: for Emax: read-out: LNCaP-AR-wt AG MAX % Stim. Here is the method: as §1, §2, §3
Setting [5] is: maximum % inhibition of R1881 control response over tested concentration range.
Where [6] appears, read: agonist mode, −Log10(EC50 [Molar]), read-out: LNCaP-AR-F876L AG pEC50 (converted).
Setting [7] is: maximum % stimulation (agonist response) over tested concentration range.
Where [8] appears, read: read-out: LNCaP-AR-F876L ANT pIC50 (converted).
Where [9] appears, read: agonist mode, −Log10(EC50 [Molar]), read-out: LNCaP-AR-wt AG pEC50 (converted).

Where a chain is given by its changes, count along the chain named. Like-named read-outs stand apart in the source and are kept apart here. Some results are limits rather than exact numbers.

For `N#Cc1ncc(N2C(=O)C3(CCC3)N(c3ccc(C(=O)Nc4ccccc4)c(F)c3)C2=S)cc1C(F)(F)F` [Cpd 73, 4-[6-[6-cyano-5-(trifluoromethyl)-3-pyridyl]-5-oxo-7-thioxo-6,8-diazaspiro[3.4]octan-8-yl]-2-fluoro-N-phenyl-benzamide], the IC50 in assay [1] is 759 nM; in assay [3] (setting [8]) it was 417 nM. The Emax in assay [1] (setting [5]) is 99.5%; in assay [2] (setting [7]) it was 0.6%; in assay [3] (setting [5]), 99.1%; in assay [4] (setting [7]), 1.9%. The EC50 in assay [2] (setting [6]) and in assay [4] (setting [9]) was above 15100 nM in each case.

`Cc1cc(N2C(=O)C3(CCC3)N(c3ccc(Oc4ccncn4)cc3)C2=S)cnc1C#N` [Cpd 62, 3-methyl-5-[5-oxo-8-(4-pyrimidin-4-yloxyphenyl)-7-thioxo-6,8-diazaspiro[3.4]octan-6-yl]pyridine-2-carbonitrile]: the IC50 was 339 nM in assay [1] and 91.2 nM in assay [3]. The Emax in assay [1] stood at 98.8%; in assay [2], 0.4%; in assay [3], 99.7%; in assay [4] it was 0.8%. For the same compound, the EC50 in assay [2] and in assay [4] was above 15100 nM each time.

Regarding `N#Cc1ncc(N2C(=O)C3(CCC3)N(c3ccc(Oc4ccncn4)cc3)C2=S)cc1C(F)(F)F` [Cpd 71, 5-[5-oxo-8-(4-pyrimidin-4-yloxyphenyl)-7-thioxo-6,8-diazaspiro[3.4]octan-6-yl]-3-(trifluoromethyl)pyridine-2-carbonitrile], the results for the IC50 in assay [1] and in assay [3] (setting [8]) were 214 nM and 251 nM, respectively. Also, the Emax in assay [1] is 98.8%; in assay [2], 0.9%; in assay [3] it was 97.5%; in assay [4] it was 0.5%. The EC50 in assay [2] and in assay [4] was above 15100 nM in each case.

For `Cc1cc(N2C(=O)C(C)(C)N(c3ccc(OC4CCN(C)CC4)cc3)C2=S)cnc1C#N` [Cpd 1, 5-[4,4-dimethyl-3-[4-[(1-methyl-4-piperidyl)oxy]phenyl]-5-oxo-2-thioxo-imidazolidin-1-yl]-3-methyl-pyridine-2-carbonitrile], the results for the IC50 in assay [1] and in assay [3] (setting [8]) were 871 nM and 513 nM, respectively. In addition, the Emax is 100% in assay [1] (setting [5]), -0.6% in assay [2] (setting [7]), 101% in assay [3] (setting [5]) and 0.5% in assay [4] (setting [7]). For the same compound, the EC50 in assay [2] (setting [6]) and in assay [4] (setting [9]) was above 15100 nM each time.

`Cc1cc(N2C(=O)C3(CCC3)N(c3ccc(C(=O)Nc4ccnn4C)c(F)c3)C2=S)cnc1C#N` [Cpd 45, 4-[6-(6-cyano-5-methyl-3-pyridyl)-5-oxo-7-thioxo-6,8-diazaspiro[3.4]octan-8-yl]-2-fluoro-N-(2-methylpyrazol-3-yl)benzamide]: the figures for the IC50 in assay [1] and in assay [3] (setting [8]) were 1020 nM and 437 nM, respectively. For the same compound, the Emax in assay [1] (setting [5]) was 101%; in assay [2] (setting [7]), 0.1%; in assay [3] (setting [5]), 100%; in assay [4] (setting [7]), 0.2%. Moreover, the EC50 in assay [2] (setting [6]) and in assay [4] (setting [9]) was above 15100 nM in each case.

Regarding `CS(=O)(=O)N1CCC(Oc2ccc(N3C(=S)N(c4cnc(C#N)c(C(F)(F)F)c4)C(=O)C34CCC4)cc2)CC1` [Cpd 122, 5-[8-[4-[(1-methylsulfonyl-4-piperidyl)oxy]phenyl]-5-oxo-7-thioxo-6,8-diazaspiro[3.4]octan-6-yl]-3-(trifluoromethyl)pyridine-2-carbonitrile], the results for the IC50 in assay [1] and in assay [3] (setting [8]) were 302 nM and 437 nM, respectively. Further, the Emax in assay [1] (setting [5]) was found to be 99.7%; in assay [2] (setting [7]) it was 6.2%; in assay [3] (setting [5]), 90.5%; in assay [4] (setting [7]), 2.2%. For the same compound, the EC50 in assay [2] (setting [6]) and in assay [4] (setting [9]) was above 15100 nM throughout.

`CCCCNC(=O)c1ccc(N2C(=S)N(c3cnc(C#N)c(C(F)(F)F)c3)C(=O)C23CCC3)cc1F` [Cpd 58, N-butyl-4-[6-[6-cyano-5-(trifluoromethyl)-3-pyridyl]-5-oxo-7-thioxo-6,8-diazaspiro[3.4]octan-8-yl]-2-fluoro-benzamide]: the figures for the IC50 in assay [1] and in assay [3] (setting [8]) were 245 nM and 204 nM, respectively. Also, the Emax was 102% in assay [1] (setting [5]), 0.6% in assay [2] (setting [7]), 98.2% in assay [3] (setting [5]) and 0.1% in assay [4] (setting [7]). For the same compound, the EC50 in assay [2] (setting [6]) and in assay [4] (setting [9]) was above 15100 nM each time.

Consider `CNC(=O)c1ccc(N2C(=S)N(c3cnc(C#N)c(C)c3)C(=O)C23CCC3)cc1C` [Cpd 5, 4-[6-(6-cyano-5-methyl-3-pyridyl)-5-oxo-7-thioxo-6,8-diazaspiro[3.4]octan-8-yl]-N,2-dimethyl-benzamide], for which the IC50 is 977 nM in assay [1] and 417 nM in assay [3] (setting [8]). The Emax was 101% in assay [1] (setting [5]), -0.1% in assay [2] (setting [7]), 98.3% in assay [3] (setting [5]) and 0.7% in assay [4] (setting [7]). In addition, the EC50 in assay [2] (setting [6]) and in assay [4] (setting [9]) was above 15100 nM throughout.

With `N#Cc1ncc(N2C(=O)C3(CCC3)N(c3ccc(C(=O)NCC4CCCC4)c(F)c3)C2=S)cc1C(F)(F)F` [Cpd 21, 4-[6-[6-cyano-5-(trifluoromethyl)-3-pyridyl]-5-oxo-7-thioxo-6,8-diazaspiro[3.4]octan-8-yl]-N-(cyclopentylmethyl)-2-fluoro-benzamide], the IC50 was 724 nM in assay [1] and 389 nM in assay [3] (setting [8]). Further, the Emax in assay [1] (setting [5]) is 100%; in assay [2] (setting [7]) it was 0.1%; in assay [3] (setting [5]) it was 98.6%; in assay [4] (setting [7]), -0.2%. For the same compound, the EC50 in assay [2] (setting [6]) and in assay [4] (setting [9]) was above 15100 nM in each case.
